13 compounds from US12378249B2, “Isoquinoline compounds and uses thereof” (Genentech, Inc., priority 2018, dated 2025) can be followed below.

In general, Ki refers to a measure of affinity in units of concentration, obtained from inhibition or displacement.

Structures are written as SMILES.

For test [1], the target named is HPK1 (Homo sapiens (Human), UniProt Q92918). Kind of test: HPK1 Lantha Binding Assay (Lanth). The settings on record: 2 nM HPK1, 15 nM Tracer222, Morrison Ki fit, read-out: HPK1 Ki (nM), L = Lanth. How it is done:
Example B2: HPK1 Lantha Binding Assay (“Lanth”)
Procedure: I. Compound Dilution:
The compounds to be tested were diluted by preparing 12.5 uL/well of 5 mM compound (100×) in columns 2 and 13 and 10 ul/well of DMSO in columns 3-12, 14-23, and wells A1-H1 and I24-P24 of the compound plate using a Bravo liquid handling platform. For the reference compound, the top concentration was 1 mM. To the plate was added 10 ul 2 mM staurosporine in wells J1-P1 and A24-H24. A 11 point 5-fold compound serial dilution was performed using the Bravo liquid handling platform. From the plate were transferred 2.5 ul of the solutions from column 2 and column 13 to the 10 ul of DMSO in columns 3 and 14 & so on. The compound plate was centrifuged at 2500 rpm for 1 min. From the compound plate was transferred 80 nl of the compounds into an assay plate using the Echo liquid handler system. One compound plate makes two assay plates. Each assay plate is sealed and stored in an N2 cabinet.
The following assay concentrations and times were used: 2 nM HPK1, 2 nM Eu-Anti-GST Ab, and 15 nM Tracer222, with 60 min incubation time.
III. HPK Lantha Binding Assay:
For the binding assay, 4 ul 2X HPK1 and Eu-anti-GST antibody were added to each well of the assay plate using a Multidrop reagent dispenser. The solutions were incubated in a 23 C incubator for 1 h. To each well of the assay plate was added 4 ul 2× Tracer-222 using a Multidrop reagent dispenser. The solutions were again incubated in a 23 C incubator for 1 h. The results of the assay were read using an Envision plate reader with the following parameters:TR_FRET, 340ex/615 and 665em; 100 usec Delay; and 200 usec integration.
Compound Ki was analyzed using Morrison ki fit model in XL-fit • a. fit=(1-((((E+x)+(Ki*(1+(S/Kd))))−(((((E+x)+(Ki*(1+(S/Kd))))^2)−((4*E)*x))^0.5))/(2*E))) • res=(y-fit) • b. Parameters: • E=enzyme concentration • S=Tracer222 concentration, Kd=Tracer222 Kd • All measurements reported using the same units (uM)
Exemplary compounds were tested in the binding assays.

Test [2] concerns the target HPK1 (Homo sapiens (Human), UniProt Q92918, S171E/T165E). Kind of test: HPK1-FL HTRF Enzymatic Assay (HTRF). In kind it is biochemical. The following applies: HPK full length T165E S171E 0.125 nM, ATP 1 mM, Biotin-SLP76 100 nM, read-out: HPK1 Ki (nM), H = HTRF. In outline:
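Ki derived from % activity calculated from the TR-FRET 665/620 ratio, using Eu-anti-pSLP76 and SA-XL665 detection added for 60 min. Reaction: compound preincubated 30 min with full-length double-mutant HPK1, then 60 min with Biotin-SLP-76 and 1 mM ATP, pH 7.5 HEPES buffer.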

Test [3] has as its system primary human pan T cells. The test can be described thus: Human T-cell IL2 Induction Assay. In kind it is cell-based. The settings on record: anti-CD3/anti-CD28 stimulated, 4 hours. Here is the method: Example B3: Human T-cell IL2 Induction Assay
Anti-CD3 and anti-CD28 activates TCR signaling in primary human pan T cells leading to IL-2 promoter induction. Secreted IL-2 in cell culture supernatant is detected by electrochemiluminescence using a capture antibody against IL-2 and an anti-IL-2 antibody labeled with SULFO-tag.
See www.mesoscale.com for additional electrochemiluminescence technology information.
Incubate primary human pan T cells with varying concentrations of test compounds for 30 minutes in a humidified incubator at 37° C. and 5% CO2. Transfer cells to a plate pre-coated with a fixed concentration of anti-human CD3 (determined separately for each donor lot) and add soluble anti-human CD28 (final concentration=1 μg/ml). Stimulate cells in a humidified incubator at 37° C. and 5% CO2 for 4 hours. Transfer 25 μl of supernatant to a MSD single spot plate pre-coated with an anti-human IL-2 antibody. Incubate MSD plate overnight at 4° C. with gentle shaking. Wash MSD plate 4× with wash buffer. Add SULFO-tagged detection antibody at a 1:50 dilution and incubate at room temperature shaking for 2 hours. Wash MSD plate 4× with wash buffer and add 150 μl 2×MSD read buffer. Read on an MSD instrument. Normalize data to stimulated/untreated controls to calculate % activity at each concentration of compound.
• Frozen Primary Human Pan-T Cells (StemCell Technologies #70024) • anti-human CD3 (OKT3 clone) (eBioscience #16-0037-81) • anti-human CD28 (CD28.2 clone) (BD #555725) • 96-well Human IL-2 tissue culture kit (MSD #K151AHB-4) Instrumentation: • Biomek FX for liquid handling (Beckman Coulter) • MSD SECTOR S 600 (Meso Scale Discovery)
Exemplary compounds of Formula (I) were tested in the human T-cell IL-2 induction assays. The % increase measured for IL-2 in cells treated by the test compounds relative to untreated cells are provided in Table B2 for certain compounds.

Chain of HPK1 (Homo sapiens (Human), UniProt Q92918) (Q92918 1-346): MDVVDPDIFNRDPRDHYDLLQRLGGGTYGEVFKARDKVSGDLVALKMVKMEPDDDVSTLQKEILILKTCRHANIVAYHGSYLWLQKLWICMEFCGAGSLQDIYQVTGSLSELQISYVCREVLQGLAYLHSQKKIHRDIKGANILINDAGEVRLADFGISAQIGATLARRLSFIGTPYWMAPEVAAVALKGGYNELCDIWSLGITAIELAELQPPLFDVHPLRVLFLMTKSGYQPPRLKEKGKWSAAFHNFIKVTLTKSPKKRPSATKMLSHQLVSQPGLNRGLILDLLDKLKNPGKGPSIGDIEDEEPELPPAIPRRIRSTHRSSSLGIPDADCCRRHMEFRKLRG
Chain of HPK1 (Homo sapiens (Human), UniProt Q92918, S171E/T165E) (Q92918 whole entry T165E/S171E): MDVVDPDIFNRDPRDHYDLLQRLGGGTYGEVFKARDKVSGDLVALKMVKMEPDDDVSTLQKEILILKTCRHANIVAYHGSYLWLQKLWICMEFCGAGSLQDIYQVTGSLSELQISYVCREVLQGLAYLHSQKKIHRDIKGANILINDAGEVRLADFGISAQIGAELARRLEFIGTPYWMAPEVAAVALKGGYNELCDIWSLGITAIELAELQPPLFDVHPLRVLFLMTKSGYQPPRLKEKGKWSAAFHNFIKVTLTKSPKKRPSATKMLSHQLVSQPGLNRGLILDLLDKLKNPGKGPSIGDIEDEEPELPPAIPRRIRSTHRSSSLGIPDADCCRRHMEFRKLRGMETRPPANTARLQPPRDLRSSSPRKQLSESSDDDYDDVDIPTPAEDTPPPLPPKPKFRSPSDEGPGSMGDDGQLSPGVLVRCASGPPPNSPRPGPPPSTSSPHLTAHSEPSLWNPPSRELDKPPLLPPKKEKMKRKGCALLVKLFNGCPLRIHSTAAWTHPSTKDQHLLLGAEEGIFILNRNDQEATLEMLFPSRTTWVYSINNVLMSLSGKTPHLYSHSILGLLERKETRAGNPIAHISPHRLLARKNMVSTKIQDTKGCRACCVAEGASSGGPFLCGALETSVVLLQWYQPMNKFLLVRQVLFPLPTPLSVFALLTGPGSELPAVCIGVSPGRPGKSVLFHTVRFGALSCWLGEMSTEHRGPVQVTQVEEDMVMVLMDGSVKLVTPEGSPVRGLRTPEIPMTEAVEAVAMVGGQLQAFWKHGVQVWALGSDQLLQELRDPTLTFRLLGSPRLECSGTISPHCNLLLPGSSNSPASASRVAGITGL

As to `CN1CCC(Cn2cc(Nc3cc4cc(-c5c(Cl)cccc5Cl)ccc4cn3)cn2)C1` (racemic) [Compound 102, (+/-)-6-(2,6-dichlorophenyl)-N-(1-((1-methylpyrrolidin-3-yl)methyl)-1H-pyrazol-4-yl)isoquinolin-3-amine], at HPK1 [1], the Ki was determined as 68 nM.
Same read-out and setting: under `Clc1cccc(Cl)c1-c1ccc2cnc(Nc3cnn(C4CCOC4)c3)cc2c1` (racemic) [Compound 103, (+/-)-6-(2,6-dichlorophenyl)-N-(1-(tetrahydrofuran-3-yl)-1H-pyrazol-4-yl)isoquinolin-3-amine] stands 180 nM.
Still for that read-out and setting: under `Clc1cccc(Cl)c1-c1ccc2cnc(Nc3ccncn3)cc2c1` [Compound 101, 6-(2,6-dichlorophenyl)-N-(pyrimidin-4-yl)isoquinolin-3-amine] stands 110 nM.
On the same count and under the same terms, the same measure for `Fc1cccc(Cl)c1-c1ccc2cnc(Nc3ccncn3)cc2c1` [Compound 104, 6-(2-chloro-6-fluorophenyl)-N-(pyrimidin-4-yl)isoquinolin-3-amine]: 57 nM; for `Cc1ccncc1-c1ccc2cnc(Nc3cc(C(F)F)ccn3)cc2c1` [Compound 106, N-(4-(difluoromethyl)pyridin-2-yl)-6-(4-methylpyridin-3-yl)isoquinolin-3-amine]: 6.6 nM.
As for `Cc1cc(Nc2cc3cc(-c4cnccc4C)ccc3cn2)ncn1` [Compound 107, 6-(4-methylpyridin-3-yl)-N-(6-methylpyrimidin-4-yl)isoquinolin-3-amine], the Ki at HPK1 [1] stood at 9 nM.
The same measure, in the same setting: under `Cc1ccnc(Nc2cc3cc(-c4cnccc4C)ccc3cn2)c1` [Compound 108, N-(4-methylpyridin-2-yl)-6-(4-methylpyridin-3-yl)isoquinolin-3-amine] stands 4.4 nM.
On to `Cc1c(N)cncc1-c1cc2cc(Nc3cc4n(n3)CC(=O)N(C(C)C)CC4)ncc2c(F)c1F` [Compound 118, 2-((6-(5-amino-4-methylpyridin-3-yl)-7,8-difluoroisoquinolin-3-yl)amino)-6-isopropyl-5,6-dihydro-4H-pyrazolo[1,5-d][1,4]diazepin-7(8H)-one], for which the Ki on HPK1 [2] turned out to be 0.065 nM. For the same compound, the “% IL-2 increase relative to untreated cells” value in test [3] (assayed concentration 0.31 μM) is listed as 400%.
On to `Cc1c(N)cncc1-c1cc2cc(Nc3cc4n(n3)CC(=O)N(C(C)C)CC4)ncc2cc1F` [Compound 119, 2-((6-(5-amino-4-methylpyridin-3-yl)-7-fluoroisoquinolin-3-yl)amino)-6-isopropyl-5,6-dihydro-4H-pyrazolo[1,5-d][1,4]diazepin-7(8H)-one], for which the Ki at HPK1 [2] amounted to 0.05 nM. The “% IL-2 increase relative to untreated cells” value in test [3] (assayed concentration 0.10 μM) is reported as 542%.
Take `Cc1c(N)cncc1-c1cc2cc(Nc3cc4n(n3)CC(=O)N(C(C)C)CC4)ncc2c(C)c1C#N` [Compound 130, 6-(5-amino-4-methyl-3-pyridyl)-3-[(6-isopropyl-7-oxo-5,8-dihydro-4H-pyrazolo[1,5-d][1,4]diazepin-2-yl)amino]-8-methyl-isoquinoline-7-carbonitrile]: the Ki at HPK1 [2] worked out at 0.068 nM. Also, in test [3] (assayed concentration 0.10 μM), the “% IL-2 increase relative to untreated cells” value is given as 308%.
As to `Cc1c(N)cncc1-c1cc2cc(Nc3cc4n(n3)Cc3nncn3CC4)ncc2cc1F` [Compound 139, N-(6-(5-amino-4-methylpyridin-3-yl)-7-fluoroisoquinolin-3-yl)-5,6-dihydro-11H-pyrazolo[1,5-d][1,2,4]triazolo[4,3-a][1,4]diazepin-8-amine], the Ki on HPK1 [2] was found to be 0.076 nM. Also, in test [3] (assayed concentration 0.31 μM), the “% IL-2 increase relative to untreated cells” value was 154%.
With `Cc1c(N)cncc1-c1cc2cc(Nc3cc4n(n3)CC(=O)N(C(C)C)CC4)ncc2cc1Cl` [Compound 140, 2-((6-(5-amino-4-methylpyridin-3-yl)-7-chloroisoquinolin-3-yl)amino)-6-isopropyl-5,6-dihydro-4H-pyrazolo[1,5-d][1,4]diazepin-7(8H)-one], the Ki at HPK1 [2] was 0.086 nM. In test [3] (assayed concentration 0.10 μM), the “% IL-2 increase relative to untreated cells” value was 304%.
For `Cc1c(-c2cc3cc(Nc4cc5n(n4)CC(=O)N(C(C)C)C[C@@H]5O)ncc3cc2F)cnc2c1NCCO2` [Compound 141b, (S)-2-((7-fluoro-6-(8-methyl-2,3-dihydro-1H-pyrido[2,3-b][1,4]oxazin-7-yl)isoquinolin-3-yl)amino)-4-hydroxy-6-isopropyl-5,6-dihydro-4H-pyrazolo[1,5-d][1,4]diazepin-7(8H)-one], in test [3] (assayed concentration 0.31 μM), the “% IL-2 increase relative to untreated cells” value came out at 350%.
